Like-named read-outs stand apart in the source and are kept apart here.

For assay [1], the system named is anti-Chlamydia abzymes. In kind it is biochemical, human. As to the method:
(§1) For chemical inactivation, a diluent solution was divided into two portions. In one portion, an abzyme inhibitor was added. The following abzyme inhibitors were used DMSO, 0.1-10%; sodium azide, 10^−5-10^−3M; catechins, 10^−6-10^−3M; ketek, […]; lactobacilli culture, 1 μM-1 mM; ascorbic acid, 10^−4-10^−3M; acetyl salicylic acid, 10^−4-10^−3M.
(§2) The serum sample was split in two aliquots and one aliquot was diluted by solution containing the abzyme inhibitor, the second aliquot was diluted by the control solution. The aliquots were then tested in the same fashion.
Lipid peroxidation was assessed as a level of MDA concentration which was measured by spectrophotometric method [Draper, H. H. et al Free Radic. Biol. Med. (1993) 15, 353]. This method is based on the formation of a coloured product when malondialdehyde reacts with thiobarbituric acid. Briefly, the level of abzymes in a sample was determined as follows: Samples of sera were diluted 1:1 by 0.05M acetate buffer pH 4.0 to make the final pH of these samples between 5.6-5.8. 990 μl of the diluted serum was mixed with 10 μl of the commercial live ovine Chlamydia vaccine (Intervet). Samples were incubated overnight (12-16 hours) at 37° C. 250 μl of 40% trichloroacetic acid and 250 μl of 1 mM 2-thiobarbituric acid was added to each sample. All samples were placed in a water bath and boiled for 30 minutes. Samples were cooled down and centrifuged at 3,000 g for 10 minutes. The supernatants were collected and their absorption measured at λ 525 nm to determine the concentration of malondialdehydes (MDA), which are products of lipid peroxidation.

Assay [2] concerns anti-Chlamydia abzymes. It counts as biochemical, human. As to the method:
as §1, §2
ELISA assays were performed using Medac materials and reagents, which were used in accordance with the manufacturers instructions.
Briefly, serum samples from patients were treated as described above. 50 μl of sample diluent was pipetted into microtitre well Al as blank, and 50 μl of the negative control, Positive Control and the diluted patients' samples were pipetted into other microtitre wells. The microplate wells were incubated for 60 min (±5 min) at 37° C. (±1° C.) in a humid chamber and then washed three times with 200 μl wash buffer per well. 50 μl of Conjugate was then added to each well and the microplate wells incubated again for 60 min (±5 min) at 37° C. (±1° C.) in a humid chamber and then washed. 50 μl of TMB-Substrate, was added to each well and the microplate wells incubated for 30 min (±2 min) at 37° C. (±1° C.) in a humid chamber. The reaction was stopped by adding 100 μl of Stop Solution, to each well.
Photometric reading was performed using a plate reader at 450 nm (ref. 620-650 nm) within 15 min after adding the Stop Solution.
To calculate the results, the OD value of the blank (well A1) was subtracted from all other OD values. […] Cut-off=mean OD value of the Negative Control+0.380. Grey zone=Cut-off±10%
The source holds these as a separate data set.

Where [3] appears, read: patient serum, abzyme inhibitor added to diluent.

Turning to `Cc1c(O)cc2c(c1C)O[C@](C)(CCC[C@H](C)CCC[C@H](C)CCCC(C)C)CC2` [(+) y-Tocopherol], the “Inhibition of abzymes ability to cause: Serum lipid peroxidation, in MDA assay” value (shortened to “Inhibition of abzymes ability … in MDA assay”) in assay [1] is “Negative”. In addition, in assay [2], the “Inhibition of abzymes ability to cause: Damage of Chlamydia pneumoniae antigen, in ELISA” value (“Inhibition of abzymes ability … in ELISA” for short) is given as “Negative”.
Take `Cc1c(C)c2c(c(C)c1O)CC[C@@](C)(CCC[C@H](C)CCC[C@H](C)CCCC(C)C)O2` [(+) α-Tocopherol]: the “Inhibition of abzymes ability … in MDA assay” value in assay [1] (setting [3]) was “Negative”. In addition, the “Inhibition of abzymes ability … in ELISA” value in assay [2] (setting [3]) is listed as “Negative”.
For `CC(=O)Oc1ccccc1C(=O)O` [Acetyl salicylic acid], the “Inhibition of abzymes ability … in MDA assay” value in assay [1] is given as “Positive”. In addition, the “Inhibition of abzymes ability … in ELISA” value in assay [2] is on record as “Positive”.
For the compound `O=C1O[C@H]([C@@H](O)CO)C(O)=C1O` [Ascorbic acid], the “Inhibition of abzymes ability … in MDA assay” value in assay [1] (setting [3]) is reported as “Positive”. Moreover, the “Inhibition of abzymes ability … in ELISA” value in assay [2] (setting [3]) was “Positive”.
For the compound `O=C(O)c1ccccc1` [Benzoic acid], the “Inhibition of abzymes ability … in MDA assay” value in assay [1] is recorded as “Negative”. In assay [2], the “Inhibition of abzymes ability … in ELISA” value was “Negative”.
With `OC[C@@H](O)[C@@H](O)[C@H](O)[C@H](O)CO` [D-Mannitol], the “Inhibition of abzymes ability … in MDA assay” value in assay [1] (setting [3]) is given as “Negative”. For the same compound, in assay [2] (setting [3]), the “Inhibition of abzymes ability … in ELISA” value is on record as “Negative”.
For `C[S+](C)[O-]` [DMSO], in assay [1] (setting [3]), the “Inhibition of abzymes ability … in MDA assay” value was “Positive”. Moreover, the “Inhibition of abzymes ability … in ELISA” value in assay [2] (setting [3]) is “Positive”.
For `O=C(O)CN(CCN(CC(=O)O)CC(=O)O)CC(=O)O` [EDTA], the “Inhibition of abzymes ability … in MDA assay” value in assay [1] was “Positive”. Further, the “Inhibition of abzymes ability … in ELISA” value in assay [2] is “Positive”.
`O=C(O)CN(CCOCCOCCN(CC(=O)O)CC(=O)O)CC(=O)O` [EGTA]: the “Inhibition of abzymes ability … in ELISA” value in assay [2] (setting [3]) is “Positive”.
As to `CC(C)=CCC/C(C)=C/C=C/C(C)=C/C=C/C(C)=C/C=C/C=C(C)/C=C/C=C(C)/C=C/C=C(\C)CCC=C(C)C` [Lycopene], in assay [1] (setting [3]), the “Inhibition of abzymes ability … in MDA assay” value is “Negative”. For the same compound, in assay [2] (setting [3]), the “Inhibition of abzymes ability … in ELISA” value is reported as “Negative”.
For `CC[C@H]1OC(=O)[C@H](C)C(=O)[C@H](C)[C@@H](O[C@@H]2O[C@H](C)C[C@H](N(C)C)[C@H]2O)[C@](C)(OC)C[C@@H](C)C(=O)[C@H](C)[C@H]2N(CCCCn3cnc(-c4cccnc4)c3)C(=O)O[C@]12C` [Telithromycin, Ketek, Telithromycin], the “Inhibition of abzymes ability … in MDA assay” value in assay [1] (setting [3]) is listed as “Positive”. The “Inhibition of abzymes ability … in ELISA” value in assay [2] (setting [3]) is reported as “Positive”.
Take `CC1=C(/C=C/C(C)=C/C=C/C(C)=C/C=C/C=C(C)/C=C/C=C(C)/C=C/C2=C(C)CCCC2(C)C)C(C)(C)CCC1` [β-Carotene]: the “Inhibition of abzymes ability … in MDA assay” value in assay [1] is listed as “Negative”. For the same compound, the “Inhibition of abzymes ability … in ELISA” value in assay [2] was “Negative”.
Turning to (+) Catechin gallate, the “Inhibition of abzymes ability … in MDA assay” value in assay [1] (setting [3]) is on record as “Positive”. In assay [2] (setting [3]), the “Inhibition of abzymes ability … in ELISA” value was “Positive”.
Take Haemoglobin: the “Inhibition of abzymes ability … in MDA assay” value in assay [1] is “Positive”. Besides, the “Inhibition of abzymes ability … in ELISA” value in assay [2] is “Positive”.
On to PMS, for which the “Inhibition of abzymes ability … in MDA assay” value in assay [1] was “Negative”. The “Inhibition of abzymes ability … in ELISA” value in assay [2] is “Negative”.

The values are drawn from patent US7939275B2, “Methods for detection of chlamydia in samples” (priority 2005, dated 2011).
